Article PMC10017155 (Aging and Disease, 2023)
“Also recorded” adds a separate entry of the source. Peptide text beside a SMILES is read from it.

What was measured:
C. elegans CL2122 = assay: Lifespan analysis, C. elegans CL2122 (transgenic control); type: in vivo; settings: for Increase/decrease in lifespan: vs control of same repeat
Procedure: (§1) C. elegans CL2120 (dvIs14 [(pCL12) unc-54::beta 1-42 +(pCL26) mtl-2::GFP]) and C. elegans CL2122 (dvIs15 [(pPD30.38) unc-54(vector) + (pCL26) mtl-2::GFP]) strains were obtained from the Caenorhabditis Genetics Center. The worms were handled according to standard methods without FUDR [18]. E. coli OP50 bacteria were grown overnight in Luria-Bertani broth and 50µl were spread atop NGM or NGMZn plates. NGMZn has 20μM ZnSO4. Seeded plates were incubated at 30°C for ~16 hours and then for 1-2 hours at 15 or 25°C before worms were transferred. Lifespan and paralysis experiments (see below) were performed at 25°C for enhanced expression of Aβ. This temperature is standard when studying the effects of Aβ on C. elegans CL2120 strain [19].
(§2) Nematodes were purified from unwanted microflora by the alkaline hypochlorite method, grown to the L4 stage at 15°C on NGM plates with bacterial lawn. […] Further, all contents were transferred to Petri plates with NGM or NGMZn with OP50 and placed in a temperature-controlled incubator at 25°C. Next day, worms were transferred onto similar media with a bacterial substrate and the lifespan was determined at 25°C (Supplementary Tables 3, 4).
(§3) Lifespans were monitored at 25°C as described previously. All experiments were repeated at least three times and ≈130 worms were used for each experiment. Details regarding repeated experiments and amounts of animals used for experiments are summarized in Supplementary Tables 3, 4. In all cases, stage L4 worms were used at t = 0 for lifespan analyses and worms were transferred every other day to new agar plates. […] Escaped animals or animals with internal hatching were not included in lifespan calculation. Data was analyzed and Boltzmann sigmoid survival curves generated using the SciDAVis statistical analysis software package. Mean lifespans were compared in Microsoft Excel using the Student t test, applying one-tailed distribution and two-sample equal variance. All lifespan plots represent the composites of all independent experiments tabulated in Supplementary Tables 3, 4. Mean percentage change ±SD of lifespan after treatment, relative to untreated control are indicated in each graph in the same color as the curve.

H6R-Aβ16 = assay: NMR titration, H6R-Aβ16 dimer with HAEE and Zn2+; type: binding, human; settings: 1H NMR, H6R-Aβ16 1.6 mM, pH 6.8, 0.5 equivalent ZnCl2, titration by HAEE; V12 methyl signal at 0.2 ppm
Procedure: Peptides Aβ16, H6R-Aβ16 and isoD7-Aβ16 at the concentration of 0.2 - 8mM were dissolved in 10-20 mM bis-Tris-d19 (2,2-Bis(hydroxymethyl)-2,2′,2"-nitrilotrie-thanol-d19 with 98% ^2D enrichment) buffer solution (pH 6.8). Sodium salt of 3-(trimethylsilyl) propionic-2,2,3,3-d4 acid (DSS) at a concentration of 10-20 μM was added as the standard. NMR spectra were measured at 278 K in 90% H2O/10% D2O with Bruker AVANCE 600 MHz spectrometer equipped with triple resonance (^1H, ^13C and ^15N) pulsed field z gradient probe. 1D NMR spectra were processed and analyzed using the Mnova software (Mestrelab Research, Spain). In order to monitor peptide-peptide interactions NMR titration experiments were carried out. […] 1D spectra were recorded for each titration point.
Figure 1. Interaction of HAEE with beta-amyloid. (A) A model for the contribution of isoD7-Aβ to AD pathology, and the possible ways of preventing its deleterious effects. Aβ spontaneously converts into isoD7-Aβ, which is accumulated over age, likely due to reduced Aβ clearance. Isomerized Aβ promotes AD pathology, potentially via formation of Zn-bound complexes serving as the seeds for a generation of neurotoxic oligomers. […] The amount of dimeric form is determined by the intensity of its characteristic signal at 0.2 ppm. […]

C. elegans CL2120 = assay: Lifespan analysis, C. elegans CL2120; type: in vivo; settings: for Mean survival: Aβ42 or isoD7-Aβ42 40 μM, HAEE 4 mM; for Increase/decrease in lifespan: vs control of same repeat
Procedure: as §1, §2, §3

[1] = CL2122, NGM (no Zn), replicate 1
[2] = CL2122, NGM (no Zn), replicate 2
[3] = CL2122, NGM (no Zn), replicate 3
[4] = CL2120, NGM (no Zn), replicate 1
[5] = CL2120, NGM (no Zn), replicate 2
[6] = CL2120, NGM (no Zn), replicate 3

CC(=O)N[C@@H](Cc1c[nH]cn1)C(=O)N[C@@H](C)C(=O)N[C@@H](CCC(=O)O)C(=O)N[C@@H](CCC(=O)O)C(N)=O [HAEE, Ac-HAEE-NH2] (Ac-HAEE-NH2)
Effect of HAEE itself on lifespan (C. elegans CL2122; CL2122, HAEE 4 mM): no effect
Mean survival (C. elegans CL2122; CL2122, NGM (no Zn), Aβ42 or isoD7-Aβ42 40 μM, HAEE 4 mM, 25°C, mean ± SD of 3 experiments): 9.07 ± 0.25 days
50% survival (C. elegans CL2122; [1]): 8.8 days
50% survival (C. elegans CL2122; [2]): 9.3 days
50% survival (C. elegans CL2122; [3]): 9.1 days
Mean increase/decrease in lifespan (C. elegans CL2122; CL2122, NGM (no Zn), vs control NGM, mean ± SD of 3 experiments): 0.03±1.89%
Increase/decrease in lifespan (C. elegans CL2122; [1]): 1.15%
Increase/decrease in lifespan (C. elegans CL2122; [2]): 1.09%
Increase/decrease in lifespan (C. elegans CL2122; [3]): -2.15%
Effect on lifespan (C. elegans CL2122; CL2122, NGM, without Zn2+, 25°C): do not affect
50% survival (C. elegans CL2122; CL2122, NGMZn, replicate 1): 8.8 days
50% survival (C. elegans CL2122; CL2122, NGMZn, replicate 2): 9.1 days
50% survival (C. elegans CL2122; CL2122, NGMZn, replicate 3): 8.9 days
Mean increase/decrease in lifespan (C. elegans CL2122; CL2122, NGMZn, vs control NGMZn, mean ± SD of 3 experiments): -1.05 ±2.87%
Increase/decrease in lifespan (C. elegans CL2122; CL2122, NGMZn, replicate 1): 1.15%
Increase/decrease in lifespan (C. elegans CL2122; CL2122, NGMZn, replicate 2): 0%
Increase/decrease in lifespan (C. elegans CL2122; CL2122, NGMZn, replicate 3): -4.3%
Amount of dimeric form of H6R-Aβ16 upon addition of HAEE (H6R-Aβ16): decrease in the amount of dimeric H6R-Aβ16; also recorded: disappearance of the dimeric form; also recorded: shifts the equilibrium between monomeric and dimeric Aβ towards its monomeric form
Effect of HAEE itself on lifespan (C. elegans CL2120; CL2120, HAEE 4 mM): no effect
Mean survival (C. elegans CL2120; CL2120, NGM (no Zn), 25°C, mean ± SD of 3 experiments): 8.83 ± 0.31 days
50% survival (C. elegans CL2120; [4]): 8.5 days
50% survival (C. elegans CL2120; [5]): 8.9 days
50% survival (C. elegans CL2120; [6]): 9.1 days
Mean increase/decrease in lifespan (C. elegans CL2120; CL2120, NGM (no Zn), vs control NGM, mean ± SD of 3 experiments): 1.53±0.63%
Increase/decrease in lifespan (C. elegans CL2120; [4]): 1.19%
Increase/decrease in lifespan (C. elegans CL2120; [5]): 1.14%
Increase/decrease in lifespan (C. elegans CL2120; [6]): 2.25%
Effect on lifespan (C. elegans CL2120; CL2120, NGM, without Zn2+, 25°C): do not affect
Mean survival (C. elegans CL2120; CL2120, NGMZn (ZnSO4 20 μM), 25°C, mean ± SD of 3 (isoD7-Aβ42: 5) experiments): 9.2 ± 0.7 days
Effect of HAEE on lifespan shortened by isoD7-Aβ42 + Zn2+ (C. elegans CL2120; CL2120, NGMZn, HAEE 4 mM + isoD7-Aβ42 40 μM): removes the negative effect; also recorded: completely restored the shortened lifespan
50% survival (C. elegans CL2120; CL2120, NGMZn, replicate 1): 9.3 days
50% survival (C. elegans CL2120; CL2120, NGMZn, replicate 2): 9 days
50% survival (C. elegans CL2120; CL2120, NGMZn, replicate 3): 9.3 days
Mean increase/decrease in lifespan (C. elegans CL2120; CL2120, NGMZn, vs control NGMZn, mean ± SD of 3 (isoD7-Aβ42: 5) experiments): 1.85 ±0.66%
Increase/decrease in lifespan (C. elegans CL2120; CL2120, NGMZn, replicate 1): 1.09%
Increase/decrease in lifespan (C. elegans CL2120; CL2120, NGMZn, replicate 2): 2.27%
Increase/decrease in lifespan (C. elegans CL2120; CL2120, NGMZn, replicate 3): 2.20%
